In the NIST ThermoML archive (doi:10.1016/j.fluid.2018.10.006):

Conditions: Fluid (supercritical or subcritical phases), Coaxial cylinder method

CCCCCC [hexane]
Conditions | thermal conductivity [W/m/K]
511.55 K, 5000 kPa | 0.07163
511.55 K, 5100 kPa | 0.07163
511.55 K, 5300 kPa | 0.07217
511.55 K, 5500 kPa | 0.0724
511.55 K, 5800 kPa | 0.07283
511.55 K, 6000 kPa | 0.07313
511.55 K, 6200 kPa | 0.07344
511.55 K, 6400 kPa | 0.07374
511.55 K, 6600 kPa | 0.07406
511.55 K, 6800 kPa | 0.07437
511.55 K, 6900 kPa | 0.07456
511.55 K, 7100 kPa | 0.07481
511.55 K, 7200 kPa | 0.07501
511.55 K, 7300 kPa | 0.07513
511.55 K, 7500 kPa | 0.07618
511.55 K, 7800 kPa | 0.07658
511.55 K, 8000 kPa | 0.07685
511.55 K, 8200 kPa | 0.07712
511.55 K, 8300 kPa | 0.07719
511.55 K, 8400 kPa | 0.07733
511.55 K, 8500 kPa | 0.07746
511.55 K, 8600 kPa | 0.0776
511.55 K, 8700 kPa | 0.07767
511.55 K, 9000 kPa | 0.07803
511.55 K, 9100 kPa | 0.07815
511.55 K, 9200 kPa | 0.07822
511.55 K, 9300 kPa | 0.07828
511.55 K, 9400 kPa | 0.07837
511.55 K, 9700 kPa | 0.0787
511.55 K, 10000 kPa | 0.07902
511.79 K, 1600 kPa | 0.03961
511.79 K, 1800 kPa | 0.04006
511.79 K, 1900 kPa | 0.04052
511.79 K, 2000 kPa | 0.041
511.79 K, 2090 kPa | 0.04133
511.79 K, 2100 kPa | 0.04148
511.79 K, 2110 kPa | 0.04151
511.79 K, 2200 kPa | 0.04198
511.79 K, 2300 kPa | 0.0427
511.79 K, 2400 kPa | 0.04354
511.79 K, 2500 kPa | 0.04428
511.79 K, 2600 kPa | 0.04543
511.79 K, 2700 kPa | 0.04664
511.79 K, 2800 kPa | 0.04819
511.79 K, 2817 kPa | 0.04857
511.79 K, 2911 kPa | 0.05076
511.79 K, 2958 kPa | 0.052
511.79 K, 2987 kPa | 0.05281
511.79 K, 3000 kPa | 0.05337
511.79 K, 3049 kPa | 0.05564
511.79 K, 3076 kPa | 0.05734
511.79 K, 3093 kPa | 0.05872
511.79 K, 3101 kPa | 0.05933
511.79 K, 3113 kPa | 0.06039
511.79 K, 3121 kPa | 0.06126
511.79 K, 3133 kPa | 0.06272
511.79 K, 3143 kPa | 0.06414
511.79 K, 3151 kPa | 0.06537
511.79 K, 3156 kPa | 0.06613
511.79 K, 3163 kPa | 0.06743
511.79 K, 3167 kPa | 0.06811
511.79 K, 3169 kPa | 0.06851
511.79 K, 3172 kPa | 0.06906
511.79 K, 3175 kPa | 0.06962
511.79 K, 3177 kPa | 0.07014
511.79 K, 3179 kPa | 0.07048
511.79 K, 3181 kPa | 0.07092
511.79 K, 3183 kPa | 0.07134
511.79 K, 3185 kPa | 0.07166
511.79 K, 3186 kPa | 0.07193
511.79 K, 3188 kPa | 0.07227
511.79 K, 3189 kPa | 0.07257
511.79 K, 3190 kPa | 0.07273
511.79 K, 3191 kPa | 0.07304
511.79 K, 3192 kPa | 0.07319
511.79 K, 3193 kPa | 0.07344
511.79 K, 3194 kPa | 0.07367
511.79 K, 3195 kPa | 0.07382
511.79 K, 3196 kPa | 0.07398
511.79 K, 3197 kPa | 0.07424
511.79 K, 3198 kPa | 0.07446
511.79 K, 3199 kPa | 0.07463
511.79 K, 3200 kPa | 0.07479
511.79 K, 3202 kPa | 0.07528
511.79 K, 3204 kPa | 0.07561
511.79 K, 3205 kPa | 0.07578
511.79 K, 3206 kPa | 0.07595
511.79 K, 3209 kPa | 0.07635
511.79 K, 3212 kPa | 0.07676
511.79 K, 3214 kPa | 0.077
511.79 K, 3216 kPa | 0.07724
511.79 K, 3219 kPa | 0.07745
511.79 K, 3221 kPa | 0.07749
511.79 K, 3223 kPa | 0.07756
511.79 K, 3226 kPa | 0.07759
511.79 K, 3231 kPa | 0.07766
511.79 K, 3234 kPa | 0.07766
511.79 K, 3236 kPa | 0.07745
511.79 K, 3237 kPa | 0.07745
511.79 K, 3240 kPa | 0.07732
511.79 K, 3243 kPa | 0.07697
511.79 K, 3246 kPa | 0.07663
511.79 K, 3247 kPa | 0.07629
511.79 K, 3251 kPa | 0.07496
511.79 K, 3253 kPa | 0.07496
511.79 K, 3256 kPa | 0.07463
511.79 K, 3257 kPa | 0.07431
511.79 K, 3264 kPa | 0.07399
511.79 K, 3265 kPa | 0.07367
511.79 K, 3269 kPa | 0.07336
511.79 K, 3270 kPa | 0.07336
511.79 K, 3276 kPa | 0.07336
511.79 K, 3278 kPa | 0.07336
511.79 K, 3280 kPa | 0.07336
511.79 K, 3285 kPa | 0.07336
511.79 K, 3291 kPa | 0.07243
511.79 K, 3293 kPa | 0.07243
511.79 K, 3295 kPa | 0.07243
511.79 K, 3300 kPa | 0.07213
511.79 K, 3301 kPa | 0.07183
511.79 K, 3306 kPa | 0.07183
511.79 K, 3310 kPa | 0.07153
511.79 K, 3313 kPa | 0.07123
511.79 K, 3315 kPa | 0.07123
511.79 K, 3319 kPa | 0.07122
511.79 K, 3321 kPa | 0.07122
511.79 K, 3325 kPa | 0.07122
511.79 K, 3327 kPa | 0.07122
511.79 K, 3330 kPa | 0.07122
511.79 K, 3332 kPa | 0.07122
511.79 K, 3335 kPa | 0.07122
511.79 K, 3340 kPa | 0.07122
511.79 K, 3346 kPa | 0.07122
511.79 K, 3350 kPa | 0.07123
511.79 K, 3353 kPa | 0.07123
511.79 K, 3355 kPa | 0.07123
511.79 K, 3360 kPa | 0.07123
511.79 K, 3365 kPa | 0.07064
511.79 K, 3367 kPa | 0.07064
511.79 K, 3368 kPa | 0.07064
511.79 K, 3370 kPa | 0.07064
511.79 K, 3375 kPa | 0.07064
511.79 K, 3380 kPa | 0.07064
511.79 K, 3385 kPa | 0.07064
511.79 K, 3390 kPa | 0.07064
511.79 K, 3395 kPa | 0.07064
511.79 K, 3400 kPa | 0.07064
511.79 K, 3410 kPa | 0.07064
511.79 K, 3420 kPa | 0.07065
511.79 K, 3440 kPa | 0.07065
511.79 K, 3460 kPa | 0.07065
511.79 K, 3500 kPa | 0.07041
511.79 K, 3600 kPa | 0.06993
511.79 K, 3657 kPa | 0.06978
511.79 K, 3700 kPa | 0.06973
511.79 K, 3750 kPa | 0.06973
511.79 K, 3800 kPa | 0.06973
511.79 K, 3850 kPa | 0.06973
511.79 K, 3900 kPa | 0.06973
511.79 K, 3950 kPa | 0.06975
511.79 K, 3980 kPa | 0.06975
511.79 K, 4000 kPa | 0.06988
511.79 K, 4030 kPa | 0.06995
511.79 K, 4100 kPa | 0.07011
